Patent US20240254119A1 (THIRD HARMONIC BIO, INC., priority 2022, published 2024)

Legend:
[1] = target: T1, wtKIT (Homo sapiens, UniProt P10721); test: Caliper biochemical assay, wtKIT; details: Table 6, read-out: KIT Biochemical IC50 avg
T1 construct: 1888289AM in the reaction mixtures
Method in brief: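 Enzyme (5.0 nM wtKIT), 1 μM FAM-labelled peptide, 400 μM ATP and 10 mM MnCl2 in HEPES pH 7.5 with 1% DMSO, incubated 3 h at 25° C. EDTA quench; substrate and phosphoproduct separated by microfluidic electrophoresis and quantified by fluorescence.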

[2] = Kinetic solubility assay; type: physicochemical; details: kinetic solubility, 50 mM PB (pH 7.4), shaken 24 hours at RT
Method in brief: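 Test compounds from 10 mM DMSO stock were diluted in 50 mM phosphate buffer, pH 7.4, and shaken for 24 h at RT. After PTFE filtration and centrifugation, filtrate concentration was quantified by UPLC-UV/HPLC-UV against a standard curve.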

[3] = target: T2, BCRP (BCRP-MDCKII monolayer) (Homo sapiens, UniProt Q9UNQ0); test: MDCKII-BCRP bidirectional transport assay; type: in vitro ADME; details: for MDCK-BCRP: Papp A-B: apical to basolateral
T2 construct: host or cells: MDCKII (canine kidney) cells
T2 sequence (Q9UNQ0 1-655): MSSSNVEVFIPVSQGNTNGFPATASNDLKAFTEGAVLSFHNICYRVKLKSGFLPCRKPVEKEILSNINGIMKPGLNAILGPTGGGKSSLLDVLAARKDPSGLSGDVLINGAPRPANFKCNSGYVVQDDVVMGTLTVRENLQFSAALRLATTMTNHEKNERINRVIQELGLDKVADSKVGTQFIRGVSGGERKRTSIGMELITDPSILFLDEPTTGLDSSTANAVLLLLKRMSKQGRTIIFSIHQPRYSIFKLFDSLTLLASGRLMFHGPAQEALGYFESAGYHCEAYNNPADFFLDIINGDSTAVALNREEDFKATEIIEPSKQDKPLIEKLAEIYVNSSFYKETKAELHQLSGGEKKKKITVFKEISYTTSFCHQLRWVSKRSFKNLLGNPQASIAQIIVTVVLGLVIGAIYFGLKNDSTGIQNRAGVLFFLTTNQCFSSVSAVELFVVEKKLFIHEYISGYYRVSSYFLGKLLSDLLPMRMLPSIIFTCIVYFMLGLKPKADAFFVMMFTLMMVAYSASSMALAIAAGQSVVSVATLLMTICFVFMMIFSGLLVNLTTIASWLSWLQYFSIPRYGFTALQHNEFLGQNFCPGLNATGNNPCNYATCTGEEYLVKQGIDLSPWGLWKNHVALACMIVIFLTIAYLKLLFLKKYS
Method in brief: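 Bidirectional A→B and B→A transport across PreadyPort BCRP-MDCKII monolayers (days 12–15) was run in duplicate for 120 min at 37° C, 5% CO2 after a 15 min preincubation. Compound levels were measured by LC-MS/MS. Papp and recovery were calculated, with efflux ratio indicating transporter engagement.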

[4] = target: T3, CSF-1R (Homo sapiens, UniProt P07333); test: Caliper biochemical assay, CSF-1R; details: Table 6
T3 construct: purchased Invitrogen PV3249 (lot 662393N)
Method in brief: (§1)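 Kinase, FAM-labelled peptide substrate, ATP and Mn^2+ incubated with compound for 3 h at 25° C, then quenched with EDTA buffer. Substrate and phosphorylated product separated by microfluidic electrophoresis and quantified by fluorescence intensity; no-enzyme wells define 100% inhibition.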

[5] = target: T4, PDGFRα (Homo sapiens, UniProt P16234); test: Caliper biochemical assay, PDGFRα; details: Table 6
T4 construct: purchased Millipore 14-467 (lot 26321_ACTI)
Method in brief: as §1

T3 sequence (P07333 20-972): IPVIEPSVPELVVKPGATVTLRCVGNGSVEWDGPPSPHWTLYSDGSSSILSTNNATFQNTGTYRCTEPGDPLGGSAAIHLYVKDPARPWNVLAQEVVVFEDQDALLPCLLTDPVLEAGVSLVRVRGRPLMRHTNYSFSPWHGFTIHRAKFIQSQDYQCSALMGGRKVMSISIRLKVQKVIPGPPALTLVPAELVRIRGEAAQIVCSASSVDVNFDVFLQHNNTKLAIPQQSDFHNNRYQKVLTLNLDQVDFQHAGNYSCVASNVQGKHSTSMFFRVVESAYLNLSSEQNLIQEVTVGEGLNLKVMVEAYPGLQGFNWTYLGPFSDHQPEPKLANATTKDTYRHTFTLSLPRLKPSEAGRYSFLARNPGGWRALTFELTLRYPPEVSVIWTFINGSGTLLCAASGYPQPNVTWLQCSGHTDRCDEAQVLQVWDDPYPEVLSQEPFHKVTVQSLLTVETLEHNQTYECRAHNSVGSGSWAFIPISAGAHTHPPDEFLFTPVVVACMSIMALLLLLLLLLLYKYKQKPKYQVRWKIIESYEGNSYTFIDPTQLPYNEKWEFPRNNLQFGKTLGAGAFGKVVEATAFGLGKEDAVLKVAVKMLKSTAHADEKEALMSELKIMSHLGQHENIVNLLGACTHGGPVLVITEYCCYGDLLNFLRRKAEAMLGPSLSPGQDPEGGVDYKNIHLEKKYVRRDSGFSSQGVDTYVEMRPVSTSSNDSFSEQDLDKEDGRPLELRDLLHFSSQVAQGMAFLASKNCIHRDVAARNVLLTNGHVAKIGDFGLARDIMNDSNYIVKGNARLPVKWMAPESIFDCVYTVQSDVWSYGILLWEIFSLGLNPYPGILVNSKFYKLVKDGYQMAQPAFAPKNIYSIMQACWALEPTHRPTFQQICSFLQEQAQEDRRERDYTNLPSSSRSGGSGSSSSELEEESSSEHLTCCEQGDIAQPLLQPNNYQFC
T1 sequence (P10721 26-976): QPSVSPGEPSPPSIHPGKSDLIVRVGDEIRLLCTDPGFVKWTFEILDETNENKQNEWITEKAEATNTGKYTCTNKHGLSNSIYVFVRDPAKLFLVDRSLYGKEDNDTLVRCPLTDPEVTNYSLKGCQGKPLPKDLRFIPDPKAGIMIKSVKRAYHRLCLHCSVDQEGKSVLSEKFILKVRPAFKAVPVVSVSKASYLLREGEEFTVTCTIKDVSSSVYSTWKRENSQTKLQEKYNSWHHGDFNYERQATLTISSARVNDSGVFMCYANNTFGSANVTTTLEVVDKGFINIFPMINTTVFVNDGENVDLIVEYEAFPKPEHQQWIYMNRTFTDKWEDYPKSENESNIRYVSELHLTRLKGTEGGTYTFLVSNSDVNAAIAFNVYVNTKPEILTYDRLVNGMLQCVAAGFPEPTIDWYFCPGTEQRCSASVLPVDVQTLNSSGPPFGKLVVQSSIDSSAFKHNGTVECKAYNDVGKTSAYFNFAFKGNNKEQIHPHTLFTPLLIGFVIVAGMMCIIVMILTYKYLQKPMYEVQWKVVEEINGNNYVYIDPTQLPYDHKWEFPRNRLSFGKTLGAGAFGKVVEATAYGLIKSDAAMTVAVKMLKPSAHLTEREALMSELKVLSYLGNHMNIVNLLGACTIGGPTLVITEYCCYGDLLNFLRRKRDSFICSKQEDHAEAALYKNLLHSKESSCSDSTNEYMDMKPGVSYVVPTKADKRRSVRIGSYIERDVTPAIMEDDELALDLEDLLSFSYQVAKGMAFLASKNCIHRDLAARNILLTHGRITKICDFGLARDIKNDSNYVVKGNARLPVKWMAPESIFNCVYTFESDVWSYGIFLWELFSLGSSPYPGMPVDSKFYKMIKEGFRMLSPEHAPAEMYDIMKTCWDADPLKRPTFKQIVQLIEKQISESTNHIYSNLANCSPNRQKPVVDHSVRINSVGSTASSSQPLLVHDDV
T4 sequence (P16234 24-1089): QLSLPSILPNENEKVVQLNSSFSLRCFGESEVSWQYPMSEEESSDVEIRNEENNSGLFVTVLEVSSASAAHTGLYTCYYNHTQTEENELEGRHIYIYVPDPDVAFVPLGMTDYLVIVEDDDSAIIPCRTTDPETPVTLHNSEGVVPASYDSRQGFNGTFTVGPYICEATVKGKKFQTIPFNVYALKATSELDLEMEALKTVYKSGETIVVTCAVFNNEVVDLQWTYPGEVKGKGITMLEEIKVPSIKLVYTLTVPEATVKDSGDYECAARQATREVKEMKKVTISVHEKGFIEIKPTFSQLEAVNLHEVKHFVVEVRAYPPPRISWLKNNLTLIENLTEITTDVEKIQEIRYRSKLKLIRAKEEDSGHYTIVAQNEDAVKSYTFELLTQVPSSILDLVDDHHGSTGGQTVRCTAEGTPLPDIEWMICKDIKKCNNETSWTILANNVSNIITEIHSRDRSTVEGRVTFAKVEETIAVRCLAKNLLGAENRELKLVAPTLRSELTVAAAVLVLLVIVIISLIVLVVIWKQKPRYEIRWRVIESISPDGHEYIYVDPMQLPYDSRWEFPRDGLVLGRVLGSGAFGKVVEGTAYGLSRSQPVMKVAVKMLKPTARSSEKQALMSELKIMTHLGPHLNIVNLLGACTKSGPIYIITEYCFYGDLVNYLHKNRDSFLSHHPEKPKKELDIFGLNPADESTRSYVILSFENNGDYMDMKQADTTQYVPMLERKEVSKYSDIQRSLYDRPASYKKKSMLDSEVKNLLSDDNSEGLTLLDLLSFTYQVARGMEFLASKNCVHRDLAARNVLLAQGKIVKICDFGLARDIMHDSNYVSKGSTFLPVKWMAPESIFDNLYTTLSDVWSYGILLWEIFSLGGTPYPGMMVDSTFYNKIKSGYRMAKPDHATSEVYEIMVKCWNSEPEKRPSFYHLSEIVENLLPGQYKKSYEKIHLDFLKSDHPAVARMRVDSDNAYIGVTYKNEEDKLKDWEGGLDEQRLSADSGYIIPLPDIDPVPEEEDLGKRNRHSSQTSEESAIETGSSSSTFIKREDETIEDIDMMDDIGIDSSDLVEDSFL

SMILES	IC50 [1] [nM]	Solubility (μM) [2]	MDCK-BCRP: Efflux Ratio [3]	MDCK-BCRP: Papp A-B [3]	IC50 [4] [nM]	IC50 [5] [nM]
COC(=O)N1CC(c2nc(-c3ccc(C)c(NC(=O)c4cnc5cc(O[C@@H](C)CO)ccn45)c3)no2)C1 (single isomer, unassigned) [Compound I-217]	≤ 50	** (a solubility greater than 10 μM and less than or equal to 50 μM)	28.1	0.86 10^−6 cm/s	≤ 50	50 to 500
Cc1ccc(-c2noc(C(C)NS(C)(=O)=O)n2)cc1NC(=O)c1cnc2ccccn12 (single isomer, unassigned) [Compound I-237]	50 to 500	** (a solubility greater than 10 μM and less than or equal to 50 μM)	11.5	1.66 10^−6 cm/s	500 to 5000	5000 to 30000
Cc1ccc(-c2noc(C(C)NS(C)(=O)=O)n2)cc1NC(=O)c1cnc2ccccn12 (single isomer, unassigned) [Compound I-238]	≤ 50	* (a solubility greater than 50 μM)	22.7	0.92 10^−6 cm/s	50 to 500	5000 to 30000
Cc1ccc(-c2noc([C@H]3C[C@@H]3F)n2)cc1NC(=O)c1cnc2cc(OC(C)C)ccn12 [Compound I-88]	≤ 50	**** (a solubility less than or equal to 2 μM)	0.89	29 10^−6 cm/s	≤ 50	50 to 500
Cc1ccc(-c2noc(CC(O)C(F)F)n2)cc1NC(=O)c1cnc2ccccn12 (stereo not drawn) [Compound I-114]	≤ 50	**** (a solubility less than or equal to 2 μM)	8.07	3.03 10^−6 cm/s	50 to 500	500 to 5000
Cc1ccc(-c2noc(CC3CC(F)(F)C3)n2)cc1NC(=O)c1cnc2ccccn12 [Compound I-124]	≤ 50	**** (a solubility less than or equal to 2 μM)	1.14	9.07 10^−6 cm/s	≤ 50	50 to 500
Cc1ccc(-c2noc(CC3CC3(F)F)n2)cc1NC(=O)c1cnc2ccccn12 (stereo not drawn) [Compound I-125]	≤ 50	**** (a solubility less than or equal to 2 μM)	1.6	9.07 10^−6 cm/s	≤ 50	50 to 500
Cc1nc(-c2ccc(C)c(NC(=O)c3cnc4cc(C(F)F)ccn34)c2)no1 [Compound I-134]	≤ 50	**** (a solubility less than or equal to 2 μM)	2.12	7.85 10^−6 cm/s	500 to 5000	500 to 5000
Cc1ccc(-c2noc(C3COC3)n2)cc1NC(=O)c1cnc2ccccn12 [Compound I-138]	≤ 50	**** (a solubility less than or equal to 2 μM)	5.11	10.4 10^−6 cm/s	≤ 50	500 to 5000
Cc1nc(-c2ccc(Cl)c(NC(=O)c3cnc4ccccn34)c2)no1 [Compound I-172]	≤ 50	**** (a solubility less than or equal to 2 μM)	0.81	6.02 10^−6 cm/s	50 to 500	500 to 5000
COC(=O)N1CC(c2nc(-c3ccc(C)c(NC(=O)c4cnn5cc(C#N)ccc45)c3)no2)C1 [Compound I-204]	≤ 50	*** (a solubility greater than 2 μM and less than or equal to 10 μM)	6.11	3.27 10^−6 cm/s	50 to 500	5000 to 30000
Cc1nc(-c2ccc(C)c(NC(=O)c3cnc4ccc(N(C)C)cn34)c2)no1 [Compound I-205]	≤ 50	**** (a solubility less than or equal to 2 μM)	1.66	23.5 10^−6 cm/s	≤ 50	50 to 500
